Data reported in the supplement of paper PMC10627819.

Experiments:
S. aureus Newman [1] = experiment: Bliss interaction score (quartile over a dose matrix) (fitness difference); higher = more antagonism (negative = synergy)
Outline: (§1)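 Fitness is OD595 at stationary-phase entry relative to the plate's robust no-drug mean, capped at 1. Single-drug fitness was inferred from combinations. The Bliss score is observed minus product-expected fitness, summarised by quartiles over technical, biological and donor/recipient replicates.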

B. subtilis 168 [2] = experiment: as above
Outline: as §1

S. aureus DSM 20231 = experiment: as above
Outline: as §1

S. pneumoniae D39V [3] = experiment: as above
Outline: as §1

S. pneumoniae D39V [4] = experiment: fitness (endpoint OD595 vs no drug) (fraction); higher = more growth
Outline: (§2)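 Background-subtracted growth curves were the basis for fitness, taken as the optical density at entry into stationary phase over the robust mean of no-drug control wells. A cap of 1 was applied. The curves came from OD595 readings every 30 min for 14 h at 37 °C, in 384-well plates seeded at OD595 0.01 with 30 µl, or 55 µl for S. pneumoniae.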

B. subtilis 168 [5] = experiment: as above
Outline: as §2

S. aureus Newman [6] = experiment: as above; conditions: main component drawn
Outline: as §2
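Wherever Bliss interaction score (quartile over a dose matrix) is given: first quartile when negative (synergy) and third quartile when positive (antagonism).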

CO[C@H]1/C=C/O[C@@]2(C)Oc3c(C)c(O)c4c(O)c(c(/C=N/N5CCN(C)CC5)c(O)c4c3C2=O)NC(=O)/C(C)=C\C=C\[C@H](C)[C@H](O)[C@@H](C)[C@@H](O)[C@@H](C)[C@H](OC(C)=O)[C@@H]1C [Rifampicin] + CN(C)c1cc(NC(=O)CNC(C)(C)C)c(O)c2c1C[C@H]1C[C@H]3[C@H](N(C)C)C(O)=C(C(N)=O)C(=O)[C@@]3(O)C(O)=C1C2=O [Tigecycline]
Conditions	Bliss interaction score
B. subtilis 168 [2]	0.0457
S. aureus DSM 20231	0.026
S. aureus Newman [1]	-0.0189
S. pneumoniae D39V [3]	-0.0785

S. pneumoniae D39V [4], first compound 0.025 µg/mL, one replicate
Conditions	fitness
partner 0.65 µg/mL	0.86
partner 1.3 µg/mL	0.808
partner 2.6 µg/mL	0.839

S. pneumoniae D39V [4], first compound 0.2 µg/mL
Conditions	fitness
partner 0.65 µg/mL	0.197
partner 1.3 µg/mL	0.159
partner 2.6 µg/mL	0.196

CO[C@H]1/C=C/O[C@@]2(C)Oc3c(C)c(O)c4c(O)c(c(/C=N/N5CCN(C)CC5)c(O)c4c3C2=O)NC(=O)/C(C)=C\C=C\[C@H](C)[C@H](O)[C@@H](C)[C@@H](O)[C@@H](C)[C@H](OC(C)=O)[C@@H]1C [Rifampicin] + Cn1nnc(-c2ccc(-c3ccc(N4C[C@H](CO)OC4=O)cc3F)cn2)n1 [Tedizolid]
Conditions	Bliss interaction score
B. subtilis 168 [2]	-0.0782
S. aureus DSM 20231	0.0203
S. aureus Newman [1]	-0.0238
S. pneumoniae D39V [3]	0.133

fitness, S. pneumoniae D39V [4], one replicate
Conditions	partner 0.125 µg/mL	partner 0.25 µg/mL	partner 0.5 µg/mL
first compound 0.025 µg/mL	0.832	0.726	0.254
first compound 0.2 µg/mL	–	0	0

fitness, S. pneumoniae D39V [4]
Conditions	partner 0.03125 µg/mL	partner 0.0625 µg/mL	partner 0.125 µg/mL	partner 0.25 µg/mL	partner 0.5 µg/mL
first compound 0.05 µg/mL	0.98	0.97	0.907	0.591	0.21
first compound 0.1 µg/mL	0.743	0.79	–	0.343	0.181
first compound 0.2 µg/mL	0.197	0.233	0.122	–	–

CC(=O)NC[C@H]1CN(c2ccc(N3CCOCC3)c(F)c2)C(=O)O1 [Linezolid] + CN[C@@H]1[C@H](O[C@H]2[C@H](O[C@H]3[C@H](O)[C@@H](O)[C@H](N=C(N)N)[C@@H](O)[C@@H]3N=C(N)N)O[C@@H](C)[C@]2(O)C=O)O[C@@H](CO)[C@H](O)[C@H]1O [Streptomycin]
Conditions	Bliss interaction score
B. subtilis 168 [2]	0.0492
S. aureus DSM 20231	-0.0536
S. aureus Newman [1]	-0.0504
S. pneumoniae D39V [3]	-0.112

fitness, one replicate
Conditions	partner 2 µg/mL	partner 4 µg/mL	partner 8 µg/mL	partner 16 µg/mL
B. subtilis 168 [5], first compound 0.0625 µg/mL	0.938	0.556	0.0308	–
S. pneumoniae D39V [4], first compound 0.2 µg/mL	0.826	–	–	0.584
S. pneumoniae D39V [4], first compound 0.4 µg/mL	0.659	–	–	0.41
S. pneumoniae D39V [4], first compound 0.8 µg/mL	0.292	–	–	0.163

fitness
Conditions	partner 2 µg/mL	partner 4 µg/mL	partner 8 µg/mL
B. subtilis 168 [5], first compound 0.125 µg/mL	0.543	0.454	0.0968
B. subtilis 168 [5], first compound 0.25 µg/mL	0.142	0.0931	0.0559
B. subtilis 168 [5], first compound 0.5 µg/mL	0.0384	0.0468	0.0218
S. pneumoniae D39V [4], first compound 0.105 µg/mL	0.763	0.752	0.803
S. pneumoniae D39V [4], first compound 0.2 µg/mL	–	0.781	0.684
S. pneumoniae D39V [4], first compound 0.21 µg/mL	0.655	0.683	0.719
S. pneumoniae D39V [4], first compound 0.4 µg/mL	–	0.625	0.56
S. pneumoniae D39V [4], first compound 0.42 µg/mL	0.376	0.337	0.307
S. pneumoniae D39V [4], first compound 0.8 µg/mL	–	0.283	0.233

CC[C@H](C)[C@H](N)C1=N[C@H](C(=O)N[C@@H](CC(C)C)C(=O)N[C@H](CCC(=O)O)C(=O)N[C@H](C(=O)N[C@H]2CCCCNC(=O)[C@H](CC(N)=O)NC(=O)[C@@H](CC(=O)O)NC(=O)[C@H](Cc3cnc[nH]3)NC(=O)[C@@H](Cc3ccccc3)NC(=O)[C@H]([C@@H](C)CC)NC(=O)[C@@H](CCCN)NC2=O)[C@@H](C)CC)CS1 [Bacitracin] + CN[C@H](CC(C)C)C(=O)N[C@H]1C(=O)N[C@@H](CC(N)=O)C(=O)N[C@H]2C(=O)N[C@H]3C(=O)N[C@H](C(=O)N[C@H](C(=O)O)c4cc(O)cc(O)c4-c4cc3ccc4O)[C@H](O)c3ccc(c(Cl)c3)Oc3cc2cc(c3O[C@@H]2O[C@H](CO)[C@@H](O)[C@H](O)[C@H]2O[C@H]2C[C@](C)(N)[C@H](O)[C@H](C)O2)Oc2ccc(cc2Cl)[C@H]1O [Vancomycin]
main component drawn
Conditions	Bliss interaction score
B. subtilis 168 [2]	0.0708
S. aureus DSM 20231	0.0843
S. aureus Newman [1]	-0.0422
S. pneumoniae D39V [3]	-0.0651

fitness, S. aureus Newman [6]
Conditions	first compound 18.75 µg/mL	first compound 37.5 µg/mL	first compound 75 µg/mL
partner 0.1875 µg/mL	0.735	0.183	0.0338
partner 0.375 µg/mL	0.723	0.135	0.0309
partner 0.75 µg/mL	0.712	0.159	0.0262

CC(=O)NC[C@H]1CN(c2ccc(N3CCOCC3)c(F)c2)C(=O)O1 [Linezolid] + C/C(=C\C(=O)OCCCCCCCCC(=O)O)C[C@@H]1OC[C@H](C[C@@H]2O[C@H]2[C@@H](C)[C@H](C)O)[C@@H](O)[C@H]1O [Pseudomonic acid]
Conditions	Bliss interaction score
B. subtilis 168 [2]	-0.0357
S. aureus DSM 20231	0.0202
S. aureus Newman [1]	0.0446
S. pneumoniae D39V [3]	0.121

fitness, S. pneumoniae D39V [4]
Conditions	first compound 0.2 µg/mL	first compound 0.4 µg/mL	first compound 0.42 µg/mL	first compound 0.8 µg/mL
partner 0.03 µg/mL	0.862	0.731	0.275	0.411
partner 0.06 µg/mL	0.796	0.753	0.233	–
partner 0.12 µg/mL	0.626	0.611	0.183	0.427

CC[C@H](C)[C@H](N)C1=N[C@H](C(=O)N[C@@H](CC(C)C)C(=O)N[C@H](CCC(=O)O)C(=O)N[C@H](C(=O)N[C@H]2CCCCNC(=O)[C@H](CC(N)=O)NC(=O)[C@@H](CC(=O)O)NC(=O)[C@H](Cc3cnc[nH]3)NC(=O)[C@@H](Cc3ccccc3)NC(=O)[C@H]([C@@H](C)CC)NC(=O)[C@@H](CCCN)NC2=O)[C@@H](C)CC)CS1 [Bacitracin] + Cn1nnc(-c2ccc(-c3ccc(N4C[C@H](CO)OC4=O)cc3F)cn2)n1 [Tedizolid]
main component drawn
Conditions	Bliss interaction score
B. subtilis 168 [2]	-0.0855
S. aureus DSM 20231	-0.0663
S. aureus Newman [1]	-0.222
S. pneumoniae D39V [3]	0.12

fitness, S. aureus Newman [6]
Conditions	first compound 18.75 µg/mL	first compound 37.5 µg/mL	first compound 75 µg/mL
partner 0.0625 µg/mL	0.646	0.0796	0.0039
partner 0.125 µg/mL	–	0.0327	0.0056
partner 0.25 µg/mL	0.0222	0.0202	0.0046

CO[C@H]1/C=C/O[C@@]2(C)Oc3c(C)c(O)c4c(O)c(c(/C=N/N5CCN(C)CC5)c(O)c4c3C2=O)NC(=O)/C(C)=C\C=C\[C@H](C)[C@H](O)[C@@H](C)[C@@H](O)[C@@H](C)[C@H](OC(C)=O)[C@@H]1C [Rifampicin] + CN[C@@H]1[C@H](O[C@H]2[C@H](O[C@H]3[C@H](O)[C@@H](O)[C@H](N=C(N)N)[C@@H](O)[C@@H]3N=C(N)N)O[C@@H](C)[C@]2(O)C=O)O[C@@H](CO)[C@H](O)[C@H]1O [Streptomycin]
Conditions	Bliss interaction score
B. subtilis 168 [2]	0.184
S. aureus DSM 20231	-0.0315
S. aureus Newman [1]	-0.0179
S. pneumoniae D39V [3]	-0.121

S. pneumoniae D39V [4], one replicate
Conditions	fitness
first compound 0.025 µg/mL, partner 2 µg/mL	0.804
first compound 0.025 µg/mL, partner 4 µg/mL	0.823
first compound 0.025 µg/mL, partner 8 µg/mL	0.725
first compound 0.05 µg/mL, partner 16 µg/mL	0.272
first compound 0.1 µg/mL, partner 16 µg/mL	0.215
first compound 0.2 µg/mL, partner 16 µg/mL	0.137

fitness, S. pneumoniae D39V [4]
Conditions	partner 2 µg/mL	partner 4 µg/mL	partner 8 µg/mL
first compound 0.1 µg/mL	–	0.292	0.304
first compound 0.2 µg/mL	0.0493	0.0964	0.185
